Source: patent publication US8858995B2, “Methods and compositions for controlled delivery of phytochemical agents” (priority 2008, dated 2014)
Read-outs that look alike come from different tables or passages of the source.

What was measured:
[1] = extruded implants
[2] = Tissue curcuminoid levels after coated implants (UPLC); assay type: in vivo, A/J mice; conditions: female, A/J, mouse
Method: Briefly, liver and brain tissues (500 and 400 mg, respectively) from each animal were homogenized in 3 ml PBS (pH 7.4) containing 200 μl of 0.5 M sodium acetate, and extracted with ethyl acetate. After evaporation of the pooled extracts, the residue was reconstituted in 100 μl acetonitrile and analyzed by UPLC using Shimadzu UPLC system (Kyoto, Japan), with a Shim-Pack XR-ODS II reverse phase column (Shimadzu; 150×3.0 mm i.d., 2.2 μm).

[3] = system: 17β-estradiol-induced mammary tumors; assay type: in vivo, ACI rats; conditions: for animals that developed palpable tumors: control 100% after 26 wks
From the text: Cancer chemoprevention approaches have been used to manipulate tumorigenesis and reduce the transformation of normal/pre-cancerous cells to malignancy. Many compounds that have worked in cell culture studies though have failed in animal models and clinical trials due to lack of bioavailability. Additionally, the high doses required to elicit biological response can be toxic. The following experiments were designed to test the hypothesis that the effective dose of phytochemical agents, administered systemically via implantation of a silastic implant incorporating the agents, can be reduced substantially compared with the traditional dietary route and were also designed to determine the effect of individual phytochemical agents on mammary carcinogenesis. The silastic implants used in the experiments described below were fabricated by filling silastic tubing with a desired agent. Although the silastic implants are not biodegradable like compositions disclosed herein comprising biocompatible polymeric matrices, the silastic implants provide proof of concept that a reduced dose of phytochemical agents administered systemically can be effective in inhibiting mammary carcinogenesis.
Initially, an experiment was performed by subcutaneously implanting individual phytochemical agents using a large number of animals per group (n=17-19). […] Two weeks later, all groups received 3 cm biocompatible silastic implants incorporating 27 mg of 17β-estradiol. Six months later, after all animals had developed mammary tumors, the animals were euthanized and the mammary tumors were counted and their size measured. […] However, 30-55% reductions were found in the tumor burden with all test agents (FIG. 23A) as measured by tumor volume, with ellagic acid resulting in the most significant reduction in tumor burden (55%). The foregoing results thus support the effectiveness of ellagic acid, a significant component in certain berries, as an exemplary phytochemical compound that can be administered via a biocompatible silastic implant to inhibit or reduce estrogen-induced ACI rat mammary carcinogenicity.
To further evaluate the effectiveness of ellagic acid in estrogen-induced mammary carcinogenicity and to determine whether the effective dose of ellagic acid administered systemically via a biocompatible silastic implant can be reduced substantially compared with the traditional dietary route, ellagic acid was administered either in the diet (400 ppm) or by subcutaneous implantation of a biocompatible silastic implant incorporating an effective amount of ellagic acid (27 mg/implant, 4 implants). […] All groups received diet and water ad libitum. The body weight and diet consumption were recorded weekly. The animals were palpated for mammary tumors, and were euthanized when the largest tumor reached >1 cm. The first tumor in the control group appeared after nearly 84 days. However, the first tumor appearance with ellagic acid implants or ellagic acid-supplemented diet was somewhat delayed by 2 and 3 weeks, respectively. The control group reached 100% tumor incidence after 26 wks, but only 75% or 69% of the animals developed palpable tumors in the groups that received ellagic acid by implants or diet, respectively. […] Similar reductions were also observed in the tumor multiplicity (4.00±0.63 and 4.80±0.4 tumors/rat with implant and diet, respectively versus 6.77±0.87 in the control group) (FIG. 24A).
The total amount of ellagic acid administered during the entire duration of the study by diet was 800 mg/rat while the subcutaneous implantation of the biocompatible silastic implant incorporating ellagic acid delivered only 1.48±0.87 mg per implant, as determined by HPLC measurement of the material left in implants recovered after termination.

DNA adducts in the liver = assay: Liver DNA adducts after a bolus dose of dibenzo[a,1]pyrene (32P-postlabeling); assay type: in vivo, Sprague-Dawley rats; conditions: 2 cm PCL:cyclodextrin (9:1) matrix, 10% w/w; bolus dibenzo[a,1]pyrene; 5 days after carcinogen
Method: Eleven days later, the animals were treated with a bolus dose of dibenzo[a,1]pyrene. The animals were then euthanized 5 days after the carcinogen treatment and liver samples were collected.

DBP-DNA adducts = assay: Dibenzo[a,I]pyrene (DBP)-DNA adducts in lung (32P-postlabeling); assay type: in vivo, A/J mice; conditions: two 1.5 cm coated implants; DBP implant; 3 weeks
Method: (§1) To assess the coated implants (i.e., where the compositions were in the form of coatings), in vivo studies were also performed. […] All groups of animals were also treated with dibenzo[a,I]pyrene (DBP) via polymeric implants (1-cm, 1.4 mm dia, 5% DBP load) at the same time. Implants were grafted subcutaneously, and animal were euthanized after 3 weeks. […] In both cases, animals were euthanized by CO2 asphyxiation and selected tissues (lung, liver and brain) were collected and stored at −80° C. until processing. Implants were also recovered, dried under vacuum and stored in amber vials under argon at 4° C. until analysis.
To analyze the formation of DNA adducts, DNA was isolated from lung tissue (200 mg) by treatment of the isolated crude nuclei with RNases and proteinase K, followed by extractions with phenol, phenol:Sevag and Sevag. DNA was recovered by ethanol precipitation and its concentration was measured spectrophotometrically considering 1 A260 equals 50 μg DNA. DNA adducts were analyzed by nuclease P1-mediated ^32P-postlabeling/TLC assay and expressed as adducts per 10^9 nucleotides.

[4] = In vitro release from coated (and extruded) polymeric implants; assay type: physicochemical
Method: To formulate the “coated” polymeric implants, blank P-80 implants (1.4 mm dia) were then prepared by dissolving P-80:F68 (9:1) in dichloromethane, followed by evaporation of the solvent in a Petri dish under hood and extrusion of the molten polymer through a silastic tubing mold, similar to the methodologies described herein above. […] For coating, one end of the blank implant (2.5-3.5 cm) was inserted into a silastic tube plug (6 mm long, 1.4 mm dia) while the other end of the plug was attached with a pipet tip. Coatings were then added by dipping the blank implant into the solution with intermittent drying with cool air using a commercial hair dryer and placing them under hood. […] The assembly was placed under hood overnight to remove the residual DCM, implants were excised in 1 or 2 cm lengths and stored in amber vials under argon at -20° C. until used. The rate of in vitro release for the implants was subsequently measured. […] The vials were placed in a water bath (Julabo S W 23, Seelback, Germany) at 37° C. with constant agitation at 110 rpm. The medium was changed every 24 h.

[5] = mouse, sc
Method: as §1
The supernatants were diluted with ethanol:DCM (80:20) and their concentrations were measured spectrophotometrically at maximal absorbance and the concentrations were calculated against standard curves of individual compounds.

[6] = system: human lung cancer A549 cell xenografts; assay: Human lung cancer xenograft inhibition by withaferin A; assay type: in vivo, athymic nude mice
Method: Additionally, to assess the effect of the implants on tumor xenografts, five- to six-week old female athymic nude mice (Harlan Laboratories, Indianapolis, Ind.) were acclimated for a week and then inoculated with human lung cancer (A549) cells (3×10^6 cells) in matrigel. […] Animals were weighed and the tumors were measured by a digital caliper weekly. At the end of 6 to 8 weeks, animals were euthanized by CO2 asphyxiation, tumors were collected and measured.

breast cancer incidence = conditions: pre-menopausal women with a family history of breast cancer, high consumption; cited from earlier work

## CC(=O)OC(C)(C)/C=C/C(=O)[C@](C)(O)[C@H]1[C@H](O)C[C@@]2(C)[C@@H]3CC=C4[C@H](C[C@H](O)C(=O)C4(C)C)[C@]3(C)C(=O)C[C@]12C [cucurbitacin B]
[1]
  burst release and local toxicity: burst release phenomenon and sign of local toxicity

## COc1cc(/C=C/C(O)=C/C(=O)/C=C/c2ccc(O)cc2)ccc1O [curcuminoid II, demethoxycurcumin]
[2]; in vivo
  concentration at 21 days: 1 ng/g

## O=C(/C=C/c1ccc(O)cc1)CC(=O)/C=C/c1ccc(O)cc1 [curcuminoid III, bisdemethoxycurcumin]
[2]; brain, subcutaneous, 2 1.5 cm implants (60 mg/implant, approximately 10% drug load), delivered individually by implant, 21 days, read-out: level in brain tissue
  concentration at 21 days: 6.4 ng/g
[2]; liver, subcutaneous, 2 1.5 cm implants (60 mg/implant, approximately 10% drug load), delivered individually, two 1.5-cm implants, 21 days, read-out: level in the liver
  concentration at 21 days: 5 to 6 ng/g

## O=c1oc2c(O)c(O)cc3c(=O)oc4c(O)c(O)cc1c4c23 [ellagic acid]
[3]; 3 cm silastic implant, 27 mg agent, six months
  reduction in tumor burden (tumor volume): 55%
[3]; diet
  tumor multiplicity: 4.80±0.4 tumors/rat
[3]; diet 400 ppm
  delay of first tumor appearance: 3 weeks
  animals that developed palpable tumors: 69%
[3]; dietary 400 ppm
  tumor burden: 269±61 mm^3
[3]; implant
  tumor multiplicity: 4.00±0.63 tumors/rat
[3]; implant (slow release)
  tumor burden: 454±105 mm^3
[3]; implants
  animals that developed palpable tumors: 75%
[3]; rat, in vivo
  amount delivered per implant over the study: 1.48±0.87 mg per implant
[3]; silastic implants, 27 mg/implant, 4 implants
  delay of first tumor appearance: 2 weeks

## Cc1c(-c2cnccn2)ssc1=S [oltipraz]
DNA adducts in the liver
  DNA adducts in the liver: reduced the amount of B[a]P-induced DNA adducts
DBP-DNA adducts
  lung DBP-DNA adduct levels: reduction was statistically significant
[4]; 37° C., no serum
  release in PBS alone: essentially no release
[4]; PBS with 10% bovine serum, 60 days
  release kinetics: essentially zero-order kinetics
[4]; in vitro
  cumulative release after 60 days: ~27%
[4]; in vitro, PBS with 10% bovine serum
  cumulative release over 3 weeks (21 days): about 12%
[5]
  total release in vivo at the end of 3 weeks: 18.6%

## CC1=C(CO)C(=O)O[C@@H]([C@@H](C)[C@H]2CC[C@H]3[C@@H]4C[C@H]5O[C@]56[C@@H](O)C=CC(=O)[C@]6(C)[C@H]4CC[C@]23C)C1 [withaferin A]
DBP-DNA adducts
  lung DBP-DNA adduct levels: reduction in the DNA adduct levels
[1]
  burst release and local toxicity: burst release phenomenon and sign of local toxicity
[6]; calculated from residual amount in the implants, versus 5.6 mg i.p.
  total dose administered via the implants: 2.69 mg
[6]; coated implants, two 1.5-cm, 5% drug load
  reduction in the growth of the tumor: 51%
[6]; end of the 8-week study, implants
  body weight versus sham: essentially the same body weight
[6]; intraperitoneally 4 mg/kg
  reduction of the tumor: no reduction
[6]; intraperitoneally 8 mg/kg on alternate days
  inhibition of the tumor: 53%

## vitamin E
Breast cancer incidence
  reduction in breast cancer incidence: 43%
